In patent publication US20040235733A1, “Methods and reagents for reducing polyglutamine toxicity” (priority 2003, published 2004):
“Also recorded” adds a separate entry of the source.

Target: T1, CRM-1 export receptor (Mus musculus, UniProt Q6P5F9)
T1 construct: NIH-3T3 cells were transfected with the indicated GFP reporter constructs; endogenous in cells; host or cells: NIH-3T3
Assay: Leptomycin B Nuclear Export Signal Assay (GFP reporter localization by confocal microscopy)
Type: cell-based
Conditions: NIH-3T3 cells, 24 hrs post-transfection, 200 nM Leptomycin B for 2 hrs
Procedure: The Leptomycin B Nuclear Export Signal Assay used NIH-3T3 cells grown on glass coverslips (Fisher) and transfected using Lipofectamine 2000 according to the manufacturers protocol. Cells 24 hrs post-transfection were treated with 200 nM Leptomycin B (Sigma) or DMSO (Mock) for 2 hrs. Cells were fixed with 3% PFA and mounted using ProLong (Molecular Probes) mounting medium. Confocal microscopy was performed on a Zeiss LSM 510 confocal system using an Axiovert 100 M microscope and a Plan/Apochromat 100×/Oil objective.

T1 sequence (Q6P5F9 whole entry): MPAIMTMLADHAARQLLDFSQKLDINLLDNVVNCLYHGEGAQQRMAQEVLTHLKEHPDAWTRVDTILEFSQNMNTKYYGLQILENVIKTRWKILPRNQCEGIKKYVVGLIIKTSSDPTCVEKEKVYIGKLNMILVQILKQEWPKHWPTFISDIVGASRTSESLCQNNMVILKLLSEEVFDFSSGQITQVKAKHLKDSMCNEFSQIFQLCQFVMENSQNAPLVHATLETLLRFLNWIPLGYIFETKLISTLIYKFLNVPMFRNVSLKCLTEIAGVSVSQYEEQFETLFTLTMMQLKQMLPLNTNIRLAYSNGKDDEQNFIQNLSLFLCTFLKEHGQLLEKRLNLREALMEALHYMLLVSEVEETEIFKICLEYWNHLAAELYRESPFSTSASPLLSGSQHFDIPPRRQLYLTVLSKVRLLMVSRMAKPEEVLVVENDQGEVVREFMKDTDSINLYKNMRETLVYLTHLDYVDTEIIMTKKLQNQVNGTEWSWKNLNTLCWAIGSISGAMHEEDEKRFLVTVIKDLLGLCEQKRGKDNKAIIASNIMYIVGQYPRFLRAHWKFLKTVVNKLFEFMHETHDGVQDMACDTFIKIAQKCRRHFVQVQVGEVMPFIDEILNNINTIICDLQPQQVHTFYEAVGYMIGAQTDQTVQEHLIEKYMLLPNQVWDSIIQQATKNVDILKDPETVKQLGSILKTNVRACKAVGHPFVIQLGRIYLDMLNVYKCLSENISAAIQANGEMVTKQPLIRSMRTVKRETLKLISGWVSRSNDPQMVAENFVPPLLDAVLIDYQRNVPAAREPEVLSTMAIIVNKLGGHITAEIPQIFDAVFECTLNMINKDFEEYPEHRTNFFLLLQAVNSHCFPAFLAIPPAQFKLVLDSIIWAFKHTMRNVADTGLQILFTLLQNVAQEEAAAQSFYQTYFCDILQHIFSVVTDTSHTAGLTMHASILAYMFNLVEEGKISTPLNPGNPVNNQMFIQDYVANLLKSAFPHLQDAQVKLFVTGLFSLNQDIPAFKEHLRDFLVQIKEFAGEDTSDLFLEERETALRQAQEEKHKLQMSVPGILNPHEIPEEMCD

## CCC(=C/[C@H](C)C/C=C/C(C)=C/[C@@H](C)C(=O)[C@@H](C)[C@H](O)[C@@H](C)C/C(C)=C/C(=O)O)/C=C/[C@@H]1OC(=O)C=C[C@@H]1C [LMB, Leptomycin B]
  effect on localization of GFP or NLS-GFP: unaffected
  effect on nuclear exclusion (cytoplasmic localization) of Htt 1-17-NLS-GFP: unaffected; also recorded: no effect
  effect on nuclear exclusion of control NES-GFP: quite sensitive; also recorded: efficiently reversed
